Values quoted from earlier work, collected in US12377214B2 (priority 2016, dated 2025).

Test system: BIS index
Details: in vivo

SMILES: CC(C)c1cccc(C(C)C)c1O [propofol]
- Cp50 (interaction model parameter, effect site concentration of propofol): 4.47
